# Patent US11618742B2, “Radical polymerization initiator, composition containing same, cured product of composition, production method for cured product, and compound” (ADEKA CORPORATION, priority 2018, dated 2023)
# Tests used:
# [1] = Solubility in water; assay type: physicochemical; conditions: 25° C., RH 65%, 100 g deionized water, added 0.1 g at a time
# Experimental: Specifically, the measurement is performed by adding the compound in an amount of 0.1 g at a time.
# [2] = Maximum absorption wavelength (absorption spectrum, spectrophotometer); assay type: physicochemical
# From the text: (2) load the measurement aqueous solution to a quartz cell (optical path length=10 mm, thickness 1.25 mm), and measure the absorption spectrum using a spectrophotometer (e.g., visible-ultraviolet absorption spectrometer V-670 manufactured by JASCO Corporation). As the absorption spectrum of the measurement aqueous solution, a corrected absorption spectrum obtained by measuring the absorption spectrum of water alone in advance and deducting this absorption spectrum of water from the absorption spectrum of the measurement aqueous solution is used. […] (2) The thus obtained measurement aqueous solutions were each loaded to a quartz cell (optical path length—10 mm, thickness 1.25 mm), and an absorption spectrum was measured using a spectrophotometer (e.g., visible-ultraviolet absorption spectrometer V-670 manufactured by JASCO Corporation). […] Further, as the absorption spectrum, a corrected absorption spectrum obtained by measuring the absorption spectrum of the solvent itself in advance and deducting this absorption spectrum of the solvent from the absorption spectrum of the measurement solution was used.
# [3] = 0.1%-by-mass aqueous solution, range of 300 nm to 600 nm
# [4] = measurement solution in acetonitrile (low solubility in water)
SMILES,Solubility in 100 parts by mass of water [1],"Maximum absorption wavelength [2, 3]","Maximum absorption wavelength [2, 4]"
O=C(O)c1cccc2c(=O)c3ccccc3sc12 [Compound 1],0.9 parts by mass,,
O=C(O)c1cccc2c(=O)c3ccccc3sc12 [Compound 61],1.2 parts by mass,,
CC(C)(O)C(=O)c1ccc(OCCO)cc1 [Compound 101],0.8 parts by mass,270 nm,
"O=C(c1ccccc1)c1ccccc1 [Compound 103, benzophenone]",,,253 nm
"CC12CCC(C(=O)C1=O)C2(C)C (centres unmarked) [Compound 104, camphor quinone]",<0.1 parts by mass,,460 nm
Cc1cc(C)c(C(=O)P(=O)(O)c2ccccc2)c(C)c1 [Compound 105],≥50 parts by mass,371 nm,
"O=C(O)c1cccc2c(=O)c3ccccc3sc12 [Compound 106, thioxanthone carboxylic acid]",<0.1 parts by mass,,391 nm
